Test results from patent publication US5886142A, “Radiolabeled thrombus imaging agents” (Thomas Jefferson University, priority 1997, dated 1999).
Values belong to the substance of their own block, whether it stands above or below them. Positions of bridges follow the written chain, without caps; N, C: chain ends. Non-standard residues stand in square brackets, D forms with d. No end group written: not given here. *: point of attachment. GABA = NCCCC(=O)O; Acm = CC(=O)NC*

What was measured:
[1] = tested on: platelets; conditions: cited from earlier work
[2] = tested on: MDA-231 cells; assay: Cell adhesion assay (method of Tuszynski et al.); format: cell-based; conditions: not radiolabeled; peptide dried in microtiter wells, one hour incubation
Method: Using the method of Tuszynski et al. J. Cell Biol. 1992, 116, 209-221, the hexapeptide Cys Ser Val Thr Cys Gly (SEQ ID NO: 4) and fibrinectin were used as controls, and the composition of SEQ ID NO: 7, as a test peptide. None of the peptides or fibrinectin were radiolabeled. Fifty μl of a […] saline solution of the peptide or protein was air dried overnight in wells of a microtiter plate. After drying, the wells were blocked with 50 μl of BSA for 30 minutes and washed with Hepes-bufferedsaline. The wells were incubated for one hour with a titer of 3.3×10^4 MDA-231 cells in 100 μl of Hepes-buffered saline containing 5 mM glucose, 1 mM MgCl2 and 1 mM CaCl2. The wells were washed once with PBS and adherent cells were fixed with 3% glutaraldehyde and stained with Giemsa overnight. The total number of adherent cells were counted under light microscopy.

[3] = tested on: CD36 transfected Jurkat cells; conditions: radioiodinated (I-125); cited from earlier work
[4] = tested on: four tumor cell lines; conditions: cited from earlier work
[5] = tested on: activated platelets; assay: Binding of Tc-99m labeled peptide to activated platelets; design: species or system human; conditions: 6 i.u. thrombin, 22° C., 15 minutes
Method: The labeled cyclized peptide was then assayed for its ability to bind to resting and activated platelets. The platelets used in this assay were obtained from healthy human volunteers. Platelets (0.5 ml; 0.7×10^9 platelets), which were stored in a salt balanced medium for up to four days and 20 μl of the technetium labeled cyclized peptide (approximately 1.9×10^-3 mg) were dispensed into each of six test tubes. To activate the platelets, 6 i.u. of thrombin was added to three of the tubes and gently mixed until a visible clot was formed. The remaining three tubes (absent thrombin) served as controls, i.e., resting platelets. The tubes were held at 22° C. for 15 minutes and then centrifuged at 2000 g for 10 minutes. The supernatant was separated and the platelets washed with 0.9% NaCl and centrifuged again at 2000 g for 10 minutes. Radioactivity in the supernatant and washings combined, and that associated with the platelet samples, was counted and the percentage of radiolabeled platelets in each tube was determined. […]
A thrombus imaging agent, i.e., the composition of SEQ ID NO: 7 labeled with Tc-99m, was assayed for its ability to bind to resting and activated platelets. […] Radioactivity in the supernatant and washings combined, and that associated with the platelet samples, was counted and the percentage of radiolabeled platelets in each tube was determined.

[6] = tested on: thrombus in femoral artery; assay: Gamma camera imaging of experimental arterial thrombus in vivo; design: species or system New Zealand white albino rabbit; conditions: rabbit, intravenous, gamma camera image 15 minutes after administration (FIG. 6)
Excerpt: An experimental clot was induced in a femoral artery of a rabbit and imaged by scintigraphy.
A New Zealand white albino rabbit (3.5 kg) was anesthetized with a mixture of ketamine/zylaxine and placed in the supine position on an x-ray table. The animal was not heparinized. A small incision was made in the neck to expose the right carotid artery; a catheter inserted and with the assistance of a guidewire and a fluoroscope, the catheter was advanced in the left femoral artery. […] The puncture was confirmed when contrast agent was injected. A 3 mm×2 cm thrombogenic coil (Cooks Inc., Bloomington, Ind.) was placed in the catheter, and with the help of the guidewire was lodged in the left femoral artery above the hip joint, near the bladder (FIG. 5B).
Approximately 25 minutes after the insertion of the catheter and coil, 2.4 μCi (10 μg) of the thrombus imaging agent was injected intravenously into the animal and serial gamma camera images were obtained.

[7] = tested on: forming clots; assay: Binding to forming human blood clots in vitro
Method: In several 1 ml syringes, approximately 0.7 ml of blood was drawn, without any anti-coagulant, from a healthy human volunteer. In four of the syringes, approximately 2 μCi of the thrombus imaging agent was added and mixed, and followed by the addition of 15 i.u. units of thrombin and mixed again. […] The fluid was expelled and reserved, and the clots were washed with 0.9% NaCl. The wash was combined with the reserved expelled fluid. The clots, still in the syringe, were placed over a gamma camera (GE 300 STARCAM) and imaged for a combined total count of 35,000. The forming clots were expelled from the syringes, collected in four separate test tubes, and placed in a gamma counter (Packard 5000 series) together with the previously reserved expelled liquid for each respective sample. The percentage of radioactivity associated with each clot was determined.
Images of these (broken) clots are shown in FIG. 4C, in which 51±1.2% of the added radiolabel was taken up. The increasing uptake of the thrombus imaging agent over a prolonged period of time in a forming clot in vitro is analogous to the situation in patients in whom clots continue to form slowly for a long period of time.

[8] = design: species or system New Zealand white rabbit; conditions: rabbit, in vivo, iv
Method: Alternatively, the stability of the thrombus imaging agent was determined by comparing an HPLC elution plot of the radiolabeled composition (SEQ ID NO: 7) and of the radioactivity excreted in the urine of the rabbit given the thrombus imaging agent four hours previously. For the in vivo analysis, a preparation containing the radiolabeled composition (SEQ ID NO: 7) was injected intravenously into a New Zealand white rabbit. Urine was collected from the rabbit at four hours post-injection and a 20 μl portion of which was analyzed by HPLC as described above. The animal had not voided prior to collection of this sample.

[9] = tested on: resting platelets; assay: Binding of thrombus imaging agent to resting platelets; design: species or system human; conditions: absent thrombin, 22° C., 15 minutes
Method: A thrombus imaging agent, i.e., the composition of SEQ ID NO: 7 labeled with Tc-99m, was assayed for its ability to bind to resting and activated platelets. Again, the platelets used in this assay were obtained from healthy volunteers. Platelets (0.5 ml; 0.7×10^9 platelets), which were stored for up to four days and 20 μl of the thrombus imaging agent (~1.9×10^-3 μg) were dispensed into each of six test tubes. To activate the platelets, 6 i.u. of thrombin was added to three of the tubes and gently mixed until a visible clot was formed. The remaining three tubes (absent thrombin) served as controls (i.e., resting platelets). The tubes were held at 22° C. for 15 minutes and then centrifuged at 2000 g for 10 minutes. The supernatant was separated and the platelets washed with 0.9% NaCl and centrifuged again at 2000 g for 10 minutes. Radioactivity in the supernatant and washings combined, and that associated with the platelet samples, was counted and the percentage of radiolabeled platelets in each tube was determined.

[10] = In vitro stability of the thrombus imaging agent by periodic HPLC; format: physicochemical; conditions: up to 18 hours after preparation
Method: The purity of the product was examined by HPLC (Rainin, Emeryville, Calif.) using a reverse phase C-18 column and gradient solvents of 0.1% TFA in water (solvent A) and 0.1% TFA in acetonitrile (solvent B). The gradient was such that at zero minutes, solvent A was 30%, reaching to […] 100% in 30 minutes. The flow rate was 1 ml/minute. The HPLC was equipped with a u.v. detector set at 278 nm, a 2" NaI (Tl) gamma counter and a rate meter. The radiolabeled composition (SEQ ID NO: 7), the thrombus imaging agent, was eluted at retention time 9.3 minutes, and the unbounded technetium at 3.7 minutes.
The in vitro stability of the thrombus imaging agent was examined for up to 18 hours after preparation.

[11] = tested on: pre-formed clots; assay: Binding to pre-formed human blood clots in vitro; conditions: thrombin 15 minutes prior to addition of the agent
Method: In several 1 ml syringes, approximately 0.7 ml of blood was drawn, without any anti-coagulant, from a healthy human volunteer. In four of the syringes, approximately 2 μCi of the thrombus imaging agent was added and mixed, and followed by the addition of 15 i.u. units of thrombin and mixed again. Clots were allowed to form for 15 minutes at 22° C. The fluid was expelled and reserved, and the clots were washed with 0.9% NaCl. The wash was combined with the reserved expelled fluid. The clots, still in the syringe, were placed over a gamma camera (GE 300 STARCAM) and imaged for a combined total count of 35,000. The forming clots were expelled from the syringes, collected in four separate test tubes, and placed in a gamma counter (Packard 5000 series) together with the previously reserved expelled liquid for each respective sample. The percentage of radioactivity associated with each clot was determined.
In the four remaining test tubes, thrombin was added and allowed to incubate for 15 minutes, prior to the addition of the thrombus imaging agent. The pre-formed clots were treated as described above and measured for radioactivity

Substance: ANKHYF [SEQ ID NO: 5]
effect on ADP-induced platelet aggregation [1]: no biological activity

Substance: Gly (D)Ala Gly Gly Aba Tyr Cys(Acm) Ser Val Thr Cys(Acm) Gly (G[dA]GG[GABA]YC(Acm)SVTC(Acm)G) [SEQ ID NO: 7]
lower cell adhesion as compared to fibronectin [2]: approximately 17% | proportion of cells demonstrating cell adhesion, test peptide versus hexapeptide (SEQ ID NO: 4) [2]: No statistical difference

Substance: VCTGSC (cysteine pairing not given here) [SEQ ID NO: 6]
effect on ADP-induced platelet aggregation [1]: no biological activity

Substance: YCSVTCG (cysteine pairing not given here) [SEQ ID NO: 3]
binding to CD36 transfected Jurkat cells [3]: binds strongly

Substance: cyclic form: cyclic form of SEQ ID NO: 4 in which two cysteine residues are cyclized (CSVTCG; disulfide 1-5 (inferred))
effect on ADP-induced platelet aggregation [1]: inhibited ADP-induced platelet aggregation | binding to four tumor cell lines relative to the native sequence [4]: approximately to the same extent as the native sequence

Substance: cysteine protected form: derivative of SEQ ID NO: 4 in which the two cysteine residues are blocked by acetaminomethyl (Acm) (C(Acm)SVTC(Acm)G)
effect on ADP-induced platelet aggregation [1]: inhibited ADP-induced platelet aggregation | binding to four tumor cell lines relative to the native sequence [4]: approximately to the same extent as the native sequence

Substance: labeled cyclized peptide: cyclized peptide Cys Ser Val Thr Cys Gly (SEQ ID NO: 4) directly labeled with Tc-99m at sulfhydryl moieties (CSVTCG; also: cyclized, kind not given here, directly labeled with Tc-99m at sulfhydryl moieties)
added radiolabel bound to activated platelets [5]: < 2%

radioactivity level measured in the forming clot ([7]; agent added before thrombin, 15 minutes at 22° C.): 27.6±0.2% | added radiolabel taken up by forming clots ([7]; incubated for 2 hours at 22° C.): 51±1.2% | radioactivity level measured in the preformed clots [11]: 6.4±3.2%
Substance: thrombus imaging agent: the composition of SEQ ID NO: 7 labeled with Tc-99m (G[dA]GG[GABA]YC(Acm)SVTC(Acm)G; also: Tc-99m label)
uptake of radioactivity at the site of the punctured artery (clot) [6]: intense uptake of radioactivity | gamma camera images, radioactivity in forming versus preformed clots ([7]; FIGS. 4A and 4B, qualitative): more radioactivity in the forming clots than in the preformed clots | quantity of free Tc-99m in urine versus the injected preparation [8]: substantially the same | added radiolabel bound to resting platelets [9]: 2.1±0.5% | quantity of free Tc-99m versus time of preparation [10]: had not increased | added radiolabel bound to activated platelets [5]: 12.5±1.2%
